# Test results as given in patent publication US11584714B2 (priority 2018, dated 2023).
# Where a name gives a salt, the structure may show the parent alone. Read-outs that look alike come from different tables or passages of the source.
# Tests used:
# Assay type in all cases: biochemical
# human α-thrombin = human α-thrombin (Homo sapiens (Human), UniProt P00734); experiment: Enzymatic assay for thrombin (Boc-VPR-AMC substrate)
# mMASP-2 = mMASP-2 (Mus musculus (Mouse), UniProt Q91WP0); experiment: Enzymatic inhibition of mMASP-2; details: read-out: mMASP-2 Ki
# mMASP-2, sequence (Q91WP0 20-685): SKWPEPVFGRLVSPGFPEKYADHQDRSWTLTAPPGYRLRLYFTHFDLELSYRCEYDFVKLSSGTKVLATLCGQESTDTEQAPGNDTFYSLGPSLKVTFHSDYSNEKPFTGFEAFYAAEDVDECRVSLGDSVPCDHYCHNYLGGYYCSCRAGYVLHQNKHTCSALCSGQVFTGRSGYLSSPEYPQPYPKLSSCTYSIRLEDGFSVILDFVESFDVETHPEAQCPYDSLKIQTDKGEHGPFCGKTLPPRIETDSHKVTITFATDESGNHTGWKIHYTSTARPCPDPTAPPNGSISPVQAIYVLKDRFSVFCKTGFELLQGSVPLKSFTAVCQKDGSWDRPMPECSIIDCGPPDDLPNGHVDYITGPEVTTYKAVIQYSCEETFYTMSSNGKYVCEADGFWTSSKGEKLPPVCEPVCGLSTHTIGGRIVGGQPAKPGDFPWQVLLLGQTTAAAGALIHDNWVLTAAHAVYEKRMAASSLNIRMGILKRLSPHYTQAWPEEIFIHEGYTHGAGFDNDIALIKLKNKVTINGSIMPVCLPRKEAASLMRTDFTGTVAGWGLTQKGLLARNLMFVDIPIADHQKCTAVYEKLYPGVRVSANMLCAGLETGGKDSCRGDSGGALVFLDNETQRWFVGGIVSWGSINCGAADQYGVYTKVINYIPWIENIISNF
# MASP-2 (CCP1-CCP2-SP) = MASP-2 (CCP1-CCP2-SP) (Homo sapiens (Human), UniProt O00187); experiment: biochemical
# MASP-2 (CCP1-CCP2-SP), sequence (O00187 445-686): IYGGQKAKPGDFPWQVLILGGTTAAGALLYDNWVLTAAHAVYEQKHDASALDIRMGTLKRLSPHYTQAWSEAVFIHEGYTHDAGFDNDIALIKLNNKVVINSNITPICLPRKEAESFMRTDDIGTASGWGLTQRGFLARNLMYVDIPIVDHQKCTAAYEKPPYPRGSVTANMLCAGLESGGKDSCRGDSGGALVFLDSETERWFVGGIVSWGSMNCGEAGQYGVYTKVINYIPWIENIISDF
# [1] = selectivity for MASP-2 inhibition versus thrombin
SMILES,Ki (human α-thrombin; read-out: Thrombin Ki),Ki (mMASP-2),Ki (MASP-2 (CCP1-CCP2-SP); read-out: MASP-2 Ki),MASP-2 vs. thrombin selectivity (MASP-2 (CCP1-CCP2-SP); [1]),Ki (human α-thrombin; Thrombin Ki (μM)),Ki (MASP-2 (CCP1-CCP2-SP)),MASP-2 vs. thrombin selectivity (MASP-2 (CCP1-CCP2-SP); MASP-2 inhibition versus thrombin)
"Cc1nc(N)ccc1CNC(=O)[C@H](C)NC(=O)[C@H]1C[C@H](Cc2ccc(N3CCCC3=O)cc2)CN1 [compound 1391, (2R,4S)—N—((S)-1-(((6-Amino-2-methylpyridin-3-yl)methyl)amino)-1-oxopropan-2-yl)-4-(4-(2-oxopyrrolidin-1-yl)benzyl)pyrrolidine-2-carboxamide Di-trifluoroacetate salt]",> 25 µM,< 0.5 µM,< 0.5 µM,**** (≥100-fold),,,
"C[C@H](NC(=O)[C@H]1C[C@@H](c2cccc(CN)c2)CN1)C(=O)NCc1ccc(C(=N)N)cc1 [compound 1277, (2R,4S)-4-(3-(Aminomethyl)phenyl)-N-((S)-1-((4-carbamimidoylbenzyl)amino)-1-oxopropan-2-yl)pyrrolidine-2-carboxamide]",< 0.5 µM,< 0.5 µM,< 0.5 µM,** (≥5.0 to <25-fold),,,
"C[C@H](NC(=O)[C@H]1C[C@H](Cc2ccc(-c3ccc(F)cc3C(N)=O)cc2)CN1)C(=O)NCc1cc(Cl)ccc1-n1cnnn1 [compound 1405, (2R,4S)-4-((2′-Carbamoyl-4′-fluoro-[1,1′-biphenyl]-4-yl)methyl)-N-((S)-1-((5-chloro-2-(1H-tetrazol-1-yl)benzyl)amino)-1-oxopropan-2-yl)pyrrolidine-2-carboxamide Hydrochloride]",,0.5 to 2.5 µM,< 0.5 µM,** (≥5.0 to <25-fold),0.5 to 2.5 µM,,
"CCc1cccc([C@H]2CN[C@@H](C(=O)N[C@@H](C)C(=O)NCc3ccc(N)nc3C)C2)c1 [compound 1303, (2R,4S)—N—((S)-1-(((6-Amino-2-methylpyridin-3-yl)methyl)amino)-1-oxopropan-2-yl)-4-(3-ethylphenyl)pyrrolidine-2-carboxamide Dihydrochloride]",> 25 µM,2.5 to 10 µM,< 0.5 µM,*** (≥25 to <100-fold),,,
"C[C@H](NC(=O)[C@H]1C[C@H](c2ccccc2)CN1)C(=O)NCc1cc(O)cc(Cl)c1 [compound 1364, (2R,4R)—N—((S)-1-((3-Chloro-5-hydroxybenzyl)amino)-1-oxopropan-2-yl)-4-phenylpyrrolidine-2-carboxamide Hydrochloride]",> 25 µM,10 to 25 µM,,,,0.5 to 2.5 µM,
"Cc1cc(Cl)cc(CNC(=O)[C@H](C)NC(=O)[C@H]2CN(c3cccc4ccccc34)CCN2)c1O [compound 1317, (R)—N—((S)-1-((5-Chloro-2-hydroxy-3-methylbenzyl)amino)-1-oxopropan-2-yI)-4-(naphthalen-1-yl)piperazine-2-carboxamide Hydrochloride]",> 25 µM,0.5 to 2.5 µM,< 0.5 µM,,,,
"Cc1nc(N)ccc1CNC(=O)[C@H](C)NC(=O)[C@H]1CN(c2cccc3ccccc23)CCN1 [compound 1309, (R)—N—((S)-1-(((6-Amino-2-methylpyridin-3-yl)methyl)amino)-1-oxopropan-2-yl)-4-(naphthalen-1-yl)piperazine-2-carboxamide Dihydrochloride]",> 25 µM,< 0.5 µM,< 0.5 µM,**** (≥100-fold),,,
C[C@@H](NC(=O)[C@H](N)CCc1ccccc1)C(=O)NCc1ccc2nc(N)[nH]c2c1 [compound 1170],> 25 µM,< 25 µM,< 0.5 µM,,,,**** (>100-fold)
"CCN1CC[C@H](c2ccccc2)C[C@@H]1C(=O)N[C@@H](C)C(=O)NCc1ccc(N)nc1C [compound 1496, (2R,4S)—N—((S)-1-(((6-Amino-2-methylpyridin-3-yl)methyl)amino)-1-oxopropan-2-yl)-1-ethyl-4-phenylpiperidine-2-carboxamide]",> 25 µM,0.5 to 2.5 µM,< 0.5 µM,,,,
